Test results taken from publication PMC11413682 (Acta Pharmaceutica Sinica. B, 2024).
Read-outs that look alike come from different tables or passages of the source. No end group written: not given here.

Biological target: T1, CUL2^ZYG11B (residues 490–728) (Homo sapiens, UniProt Q9C0D3)
T1 construct: PCR was used to amplify CUL2^ZYG11B (residues 490–728); 6×His-SUMO (TEV-cleavable) (N, cleaved yes); made in house; host or cells: E. coli
Test: ITC binding of ORF10 NTE synthetic peptides to CUL2^ZYG11B

[1] = figure panels, […], repeated 3 times, read-out: Kd

T1 sequence (Q9C0D3 490-728): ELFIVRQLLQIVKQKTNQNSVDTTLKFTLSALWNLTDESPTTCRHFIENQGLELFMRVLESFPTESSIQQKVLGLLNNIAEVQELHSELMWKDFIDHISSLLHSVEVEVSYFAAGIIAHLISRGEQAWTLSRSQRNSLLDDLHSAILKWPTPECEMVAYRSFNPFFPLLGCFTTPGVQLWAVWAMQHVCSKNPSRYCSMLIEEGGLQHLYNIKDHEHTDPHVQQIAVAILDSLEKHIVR

Substance | Kd [1] [µM] | further results
GYANV [SARS-2 ORF10 N5-I3A] | 5.61 | –
GFINV [SARS-2 ORF10 N5-Y2F] | 4.73 | –
AYINV [SARS-2 ORF10 N5-G1A] | – | Kd: 12.4 µM
GYIAV [SARS-2 ORF10 N5-N4A] | 0.59 | –
PYINV [SARS-2 ORF10 N5-G1P, altered peptide derived from SARS-CoV-2 ORF10 N5, G1P] | – | binding to CUL2^ZYG11B (in words) (ITC): abolished
GYFNV [SARS-2 ORF10 N5-I3F] | 0.87 | –
